Experimental data published in ChEMBL document CHEMBL3046274, “Toxicity of imidacloprid to developmental stages of Rhynchophorus ferrugineus (Curculionidae: Coleoptera): Laboratory and field tests” (Crop Prot, 2006).
Calls of active or inactive are those of the source. The rule behind the calls is not given here.

Key:
[1] = system: Rhynchophorus ferrugineus; experiment: Contact toxicity against Rhynchophorus ferrugineus (red palm weevil) adults assessed as time required for 50% reversible knockdown at 1.5 ml/l for 2 min; assay type: functional
[2] = system: Rhynchophorus ferrugineus; experiment: Pesticidal activity against Rhynchophorus ferrugineus (red palm weevil) larvae infested date palm tree assessed as non-feeding status of collected live stage larvae at 20 ml/4l of water applied through soil-drench irrigation measured after 3 weeks relative to control; assay type: functional, organism-based
[3] = system: Rhynchophorus ferrugineus; experiment: Pesticidal activity against Rhynchophorus ferrugineus (red palm weevil) larvae assessed as mortality at 500 ppm administered topically at 72 hr post-treatment; assay type: functional
[4] = system: Rhynchophorus ferrugineus; experiment: Pesticidal activity against Rhynchophorus ferrugineus (red palm weevil) cocoon assessed as mortality at 1 ppm administered by dipping for 3 min measured at 48 hr post-treatment relative to control; assay type: functional
[5] = system: Rhynchophorus ferrugineus; experiment: Pesticidal activity Rhynchophorus ferrugineus (red palm weevil) larvae assessed as time required after hatching for 100% mortality at 2.5 ml/l administered topically measured up to 14 days relative to control; assay type: functional
[6] = system: Rhynchophorus ferrugineus; experiment: Pesticidal activity against Rhynchophorus ferrugineus (red palm weevil) larvae assessed as mortality at 1.5 ppm, po at 114 hr post-treatment relative to control; assay type: functional
[7] = system: Rhynchophorus ferrugineus; experiment: Pesticidal activity against adult Rhynchophorus ferrugineus (red palm weevil) assessed as mortality at 2 ppm, po at 114 hr post-treatment relative to control; assay type: functional
[8] = system: Rhynchophorus ferrugineus; experiment: Pesticidal activity against Rhynchophorus ferrugineus (red palm weevil) cocoons assessed as time required for total mortality at 3.5 ml/l administered by dipping for 30 secs; assay type: functional
[9] = system: Rhynchophorus ferrugineus; experiment: Pesticidal activity against Rhynchophorus ferrugineus (red palm weevil) cocoon assessed as mortality at 4 ppm administered by dipping for 3 min measured at 72 hr post-treatment relative to control; assay type: functional
[10] = system: Rhynchophorus ferrugineus; experiment: Contact toxicity against Rhynchophorus ferrugineus (red palm weevil) adults assessed as time required for 100% mortality at 3.5 ml/l for 2 min; assay type: functional
[11] = system: Rhynchophorus ferrugineus; experiment: Pesticidal activity against Rhynchophorus ferrugineus (red palm weevil) larvae assessed as mortality at 6 ppm, po at 48 hr post-treatment relative to control; assay type: functional
[12] = system: Rhynchophorus ferrugineus; experiment: Pesticidal activity against Rhynchophorus ferrugineus (red palm weevil) larvae assessed as mortality at 0.5 ppm, po at 18 hr post-treatment relative to control; assay type: functional
[13] = system: Rhynchophorus ferrugineus; experiment: Contact toxicity against Rhynchophorus ferrugineus (red palm weevil) adults assessed as time required for 100% reversible knockdown at 1.5 ml/l for 5 min; assay type: functional
[14] = system: Rhynchophorus ferrugineus; experiment: Contact toxicity against Rhynchophorus ferrugineus (red palm weevil) adults assessed as time required for 50% reversible knockdown at 1.5 ml/l for 5 min; assay type: functional
[15] = system: Rhynchophorus ferrugineus; experiment: Pesticidal activity against Rhynchophorus ferrugineus (red palm weevil) larvae assessed as mortality at 2 ppm, po at 72 hr post-treatment relative to control; assay type: functional
[16] = system: Rhynchophorus ferrugineus; experiment: Pesticidal activity against Rhynchophorus ferrugineus (red palm weevil) larvae assessed as mortality at 4 ppm, po at 48 hr post-treatment relative to control; assay type: functional
[17] = system: Rhynchophorus ferrugineus; experiment: Pesticidal activity against Rhynchophorus ferrugineus (red palm weevil) cocoon assessed as mortality at 0.5 ppm administered by dipping for 3 min measured at 72 hr post-treatment relative to control; assay type: functional
[18] = system: Rhynchophorus ferrugineus; experiment: Pesticidal activity against Rhynchophorus ferrugineus (red palm weevil) larvae assessed as mortality at 500 ppm administered topically at 48 hr post-treatment; assay type: functional
[19] = system: Rhynchophorus ferrugineus; experiment: Pesticidal activity against Rhynchophorus ferrugineus (red palm weevil) larvae infested date palm tree assessed as mortality of collected live stage at 20 ml/4l of water applied through soil-drench irrigation measured at 3 weeks post-treatment within 48 hr after emergence relative to control; assay type: functional
[20] = system: Rhynchophorus ferrugineus; experiment: Pesticidal activity against Rhynchophorus ferrugineus (red palm weevil) larvae assessed as mortality at 100 ppm administered topically at 36 hr post-treatment; assay type: functional
[21] = system: Rhynchophorus ferrugineus; experiment: Pesticidal activity against adult Rhynchophorus ferrugineus (red palm weevil) assessed as mortality at 2 ppm, po at 18 hr post-treatment relative to control; assay type: functional
[22] = system: Rhynchophorus ferrugineus; experiment: Pesticidal activity against Rhynchophorus ferrugineus (red palm weevil) larvae assessed as mortality at 1 ppm, po at 48 hr post-treatment relative to control; assay type: functional
[23] = system: Rhynchophorus ferrugineus; experiment: Contact toxicity against Rhynchophorus ferrugineus (red palm weevil) adults assessed as time required for 100% mortality at 2.5 ml/l for 5 min; assay type: functional
[24] = system: Rhynchophorus ferrugineus; experiment: Pesticidal activity against Rhynchophorus ferrugineus (red palm weevil) larvae assessed as mortality at 1000 ppm administered topically at 36 hr post-treatment; assay type: functional
[25] = system: Rhynchophorus ferrugineus; experiment: Pesticidal activity against Rhynchophorus ferrugineus (red palm weevil) cocoon assessed as mortality at 4 ppm administered by dipping for 3 min measured at 18 hr post-treatment relative to control; assay type: functional
[26] = system: Rhynchophorus ferrugineus; experiment: Contact toxicity against Rhynchophorus ferrugineus (red palm weevil) adults assessed as time required for 50% mortality at 1.5 ml/l for 2 min; assay type: functional
[27] = system: Rhynchophorus ferrugineus; experiment: Pesticidal activity against adult Rhynchophorus ferrugineus (red palm weevil) assessed as mortality at 1.5 ppm, po at 18 hr post-treatment relative to control; assay type: functional
[28] = system: Rhynchophorus ferrugineus; experiment: Pesticidal activity against Rhynchophorus ferrugineus (red palm weevil) cocoon assessed as mortality at 2 ppm administered by dipping for 3 min measured at 18 hr post-treatment relative to control; assay type: functional
[29] = system: Rhynchophorus ferrugineus; experiment: Pesticidal activity against adult Rhynchophorus ferrugineus (red palm weevil) infested date palm tree assessed as disorientation of collected live stage larvae at 20 ml/4l of water applied through soil-drench irrigation measured after 3 weeks relative to control; assay type: functional, organism-based
[30] = system: Rhynchophorus ferrugineus; experiment: Pesticidal activity against Rhynchophorus ferrugineus (red palm weevil) larvae assessed as mortality at 2 ppm, po at 114 hr post-treatment relative to control; assay type: functional
[31] = system: Rhynchophorus ferrugineus; experiment: Pesticidal activity against Rhynchophorus ferrugineus (red palm weevil) cocoon assessed as mortality at 1.5 ppm administered by dipping for 3 min measured at 24 hr post-treatment relative to control; assay type: functional
[32] = system: Rhynchophorus ferrugineus; experiment: Pesticidal activity against Rhynchophorus ferrugineus (red palm weevil) larvae infested date palm tree assessed as reduction in mandibles movement of collected live stage larvae at 20 ml/4l of water applied through soil-drench irrigation measured after 3 weeks relative to control; assay type: functional, organism-based
[33] = system: Rhynchophorus ferrugineus; experiment: Pesticidal activity against adult Rhynchophorus ferrugineus (red palm weevil) assessed as mortality at 1.5 ppm, po at 24 hr post-treatment relative to control; assay type: functional
[34] = system: Rhynchophorus ferrugineus; experiment: Pesticidal activity against Rhynchophorus ferrugineus (red palm weevil) larvae assessed as mortality at 4 ppm, po at 24 hr post-treatment relative to control; assay type: functional
[35] = system: Rhynchophorus ferrugineus; experiment: Pesticidal activity against adult Rhynchophorus ferrugineus (red palm weevil) assessed as mortality at 2 ppm, po at 90 hr post-treatment relative to control; assay type: functional
[36] = system: Rhynchophorus ferrugineus; experiment: Pesticidal activity against adult Rhynchophorus ferrugineus (red palm weevil) assessed as mortality at 1 ppm, po at 48 hr post-treatment relative to control; assay type: functional
[37] = system: Rhynchophorus ferrugineus; experiment: Pesticidal activity against Rhynchophorus ferrugineus (red palm weevil) larvae assessed as mortality at 100 ppm administered topically at 72 hr post-treatment; assay type: functional
[38] = system: Rhynchophorus ferrugineus; experiment: Pesticidal activity against Rhynchophorus ferrugineus (red palm weevil) cocoon assessed as mortality at 20 ppm administered by dipping for 3 min measured at 18 hr post-treatment relative to control; assay type: functional
[39] = system: Rhynchophorus ferrugineus; experiment: Pesticidal activity against Rhynchophorus ferrugineus (red palm weevil) larvae assessed as mortality at 1.5 ppm, po at 72 hr post-treatment relative to control; assay type: functional
[40] = system: Rhynchophorus ferrugineus; experiment: Pesticidal activity against adult Rhynchophorus ferrugineus (red palm weevil) assessed as mortality at 100 ppm administered topically at 48 hr post-treatment; assay type: functional

## O=[N+]([O-])/N=C1\NCCN1Cc1ccc(Cl)nc1 [IMIDACLOPRID]
[1]
  Time: 3.2 days
[2]
  Activity: Active
[3]
  Activity: 72.2%
[4]
  Activity: 0%
[5]
  Time: 6 days
[6]
  Activity: 100%
[7]
  Activity: 100%
[8]
  Time: 3.2 days
[9]
  Activity: 44.4%
[10]
  Time: 8.1 days
[11]
  Activity: 100%
[12]
  Activity: 0%
[13]
  Time: 4.2 days
[14]
  Time: 3.2 days
[15]
  Activity: 100%
[16]
  Activity: 100%
[17]
  Activity: 0%
[18]
  Activity: 72.2%
[19]
  Activity: 100%
[20]
  Activity: 0%
[21]
  Activity: 100%
[22]
  Activity: 38.9%
[23]
  Time: 7.2 days
[24]
  Activity: 72.2%
[25]
  Activity: 0%
[26]
  Time: 10.1 days
[27]
  Activity: 72.2%
[28]
  Activity: 0%
[29]
  Activity: Active
[30]
  Activity: 100%
[31]
  Activity: 0%
[32]
  Activity: Active
[33]
  Activity: 72.2%
[34]
  Activity: 100%
[35]
  Activity: 100%
[36]
  Activity: 38.9%
[37]
  Activity: 0%
[38]
  Activity: 0%
[39]
  Activity: 100%
[40]
  Activity: 72.2%
